Here are results for 1 compound from PMC10349806 (Nature Communications, 2023).

For assay [1], the system named is PfCRT variant E207K/K80E. Description: CQ uptake assay, oocytes expressing E207K/K80E. Type of assay: cell-based, Plasmodium falciparum. The method, then: (§1) Site-directed mutagenesis of PfCRT^Dd2 was performed as described using the megaprimer method with overlap extension[21],[54]. The primer pairs used are listed in Supplementary Table 6. Please note that a codon-optimized and oocyte-adapted version of PfCRT^Dd2 was used[22] (Supplementary Fig. 16). The resulting DNA fragment was cloned into the SP64T expression vector and verified by sequencing.
(§2) Oocytes were obtained as described previously. Briefly, adult (>2 years old) female X. laevis frogs (NASCO) were anesthetized in a cooled solution of ethyl 3-amino benzoate methanesulfonate (0.1%, w/v), followed by a surgical removal of parts of the ovary. The ovary lobes were carefully dissected and small pieces of oocytes were incubated in Ca^2+-free ND96 buffer (96 mM NaCl, 2 mM KCl, 1 mM MgCl2 buffered with 5 mM HEPES/NaOH, pH 7.5) supplemented with collagenase D (0.1%, w/v; Roche), BSA (0.5%, w/v), and 9 mm Na2HPO4 at 18 °C for 14-16 h while gentle shaking. After incubation, the oocytes were carefully washed several times with ND96 buffer (96 mM NaCl, 2 mM KCl, 1.8 mM CaCl2, 1 mM MgCl2 buffered with 5 mM HEPES/NaOH, pH 7.5) supplemented with 100 mg l^−1 gentamycin). Defolliculated and healthy-looking stage V-VI oocytes were manually selected for RNA microinjection. The RNA was generated as following: The codon-optimized sequences of PfCRT variants were cloned into the pSP64T expression vector. After vector linearization using the restriction endonucleases BamHI or SalI (New England Biolabs), transcription was performed using the in vitro SP6 mMessage mMachine Kit (Ambion)[34]. The obtained RNA was kept at −80 °C and diluted with nuclease-free water to a concentration of 0.6 μg μl^−1. Precision-bore glass capillary tubes (3.5-inch glass capillaries; Drummond Scientific Co.) were pulled on a vertical puller (P-87 Flaming/Brown micropipette puller, Sutter Instrument Co.), graduated, and placed on a microinjector (Nanoject II Auto-Nanoliter Injector, Drummond Scientific Co.). 50 nl of nuclease-free water alone (control oocytes) or 50 nl of 0.6 μg μl^−1 RNA were injected under stereomicroscopic control. Injected oocytes were incubated for 46–72 h at 18 °C with twice-daily buffer changes before usage in experiments.
Drug uptake assays were performed as described previously[21],[22],[24],[34]. […] The radioactivity of each sample was measured using a liquid scintillation analyzer Tri-Carb 4910 TR (PerkinElmer). Oocytes that were injected with water instead of RNA were analyzed in parallel, representing the uptake of a drug by diffusion and/or endogenous permeation pathways. […]

Assay [2] has as its system PfCRT variant E207F. The experiment in a line: CQ uptake assay, oocytes expressing E207F. Type of assay: cell-based, Plasmodium falciparum. The method, then: as §1, §2
(§3) Drug uptake assays were performed as described previously[21],[22],[24],[34]. […] The direction of radio-labeled drug transport is here from the mostly acidic extracellular solution (pH 4.5 or 6.0, as indicated) into the oocyte cytosol (pH ∼ 7.2), which corresponds to the efflux of drug from the acidic digestive vacuole (pH 5.2) into the parasite cytoplasm (pH 7.2). The topology of PfCRT in the oolemma is such that both the N- and C-terminus face the extracellular milieu[3],[22]. In the parasite, the N- and C-terminus face the lumen of the digestive vacuole. CQ uptake kinetics were performed by incubating oocytes in ND96 buffer adjusted to a pH of 4.5, 5.0, 5.5, or 6.0 and supplemented with 50 nM [^3H]CQ and one of 7 different CQ concentrations (10 µM, 50 µM, 100 µM, 200 µM, 300 µM, 400 µM, 500 µM CQ). The reaction was stopped at the 60 min time point, which is in the linear uptake range[22],[34] (Supplementary Fig. 17). For determination of the amount of drug uptake for each oocyte, the reaction medium was removed and the oocytes were washed three times with 2 ml of ice-cold ND96 buffer. Each oocyte was individually transferred to a scintillation vial containing 5% sodium dodecyl sulfate (200 μl) for lysis. The radioactivity of each sample was measured using a liquid scintillation analyzer Tri-Carb 4910 TR (PerkinElmer). Oocytes that were injected with water instead of RNA were analyzed in parallel, representing the uptake of a drug by diffusion and/or endogenous permeation pathways. The resulting value represents the “background“ level of drug accumulation in oocytes (in-depth discussion in[22]). […]

Assay [3] concerns the target T1, PfCRT variant F287A (Plasmodium falciparum, UniProt Q9N623, A220S/F287A/I356T/K76T/M74I/N326S/N75E/Q271E/R371I).
T1 sequence (Q9N623 1-424 M74I/N75E/K76T/A220S/Q271E/F287A/N326S/I356T/R371I): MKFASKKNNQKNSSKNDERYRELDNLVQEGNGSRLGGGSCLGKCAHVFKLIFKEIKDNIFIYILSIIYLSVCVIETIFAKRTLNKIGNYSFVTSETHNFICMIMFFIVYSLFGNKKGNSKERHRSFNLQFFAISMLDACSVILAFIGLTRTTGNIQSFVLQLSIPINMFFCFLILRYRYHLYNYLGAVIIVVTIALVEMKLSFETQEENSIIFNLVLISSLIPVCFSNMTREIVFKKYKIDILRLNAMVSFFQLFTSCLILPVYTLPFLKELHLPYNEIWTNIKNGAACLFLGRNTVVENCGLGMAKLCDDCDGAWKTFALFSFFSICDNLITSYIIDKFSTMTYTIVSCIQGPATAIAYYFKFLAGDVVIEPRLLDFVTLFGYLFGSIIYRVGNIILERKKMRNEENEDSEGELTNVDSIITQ
Description: CQ uptake assay, oocytes expressing F287A. Type of assay: cell-based. The method, then: as §1, §2, §3

Where [4] appears, read: E207K/K80E, 50 µM CQ, 1 h, mean ± SEM.
[5] abbreviates: E207F, 50 µM CQ, 1 h, mean ± SEM.
Setting [6] is: F287A, 50 µM CQ, 1 h, mean ± SEM.

Where “and” joins values, the source holds several entries; their conditions need not be identical. Equal values may be shown once.

On to `CCN(CC)CCCC(C)Nc1ccnc2cc(Cl)ccc12` (stereo not shown) [CQ, chloroquine], for which the “Activity at pH 4.5” value was 1.85 ± 0.84 pmol h-1 oocyte-1 in assay [1] (setting [4]), 2.67 ± 0.27 pmol h-1 oocyte-1 in assay [2] (setting [5]) and 1.50 ± 0.05 pmol h-1 oocyte-1 in assay [3] (setting [6]). Besides, the entries for the “Activity at pH 6.0” value in assay [1] (setting [4]), in assay [2] (setting [5]) and in assay [3] (setting [6]) were 4.75 ± 0.91 pmol h-1 oocyte-1, 3.27 ± 0.42 pmol h-1 oocyte-1 and 4.71 ± 0.24 pmol h-1 oocyte-1, respectively. Moreover, the “E207K/K80E transport activity pH 4.5” value in assay [1] (pH 4.5, individual replicates (Fig 6a)) is 3.47 pmol oocyte-1 h-1 and 1.46 pmol oocyte-1 h-1 and 0.63 pmol oocyte-1 h-1. In assay [1] (pH 6.0, individual replicates (Fig 6a)), the “E207K/K80E transport activity pH 6.0” value is 6.4 pmol oocyte-1 h-1 and 4.59 pmol oocyte-1 h-1 and 3.25 pmol oocyte-1 h-1. For the same compound, the R-value worked out at 0.84 ± 0.09 in assay [2] (E207F, CQ transport at pH 4.5 / pH 6.0) and 0.32 ± 0.02 in assay [3] (F287A, CQ transport at pH 4.5 / pH 6.0). For the same compound, in assay [2] (pH 4.5, individual replicates, Fig 6b), the “E207F transport activity pH 4.5” value was 3.33 pmol oocyte-1 h-1 and 3.06 pmol oocyte-1 h-1 and 2.01 pmol oocyte-1 h-1 and 2.27 pmol oocyte-1 h-1. Moreover, the “E207F transport activity pH 6.0” value in assay [2] (pH 6.0, individual replicates, Fig 6b) is 2.89 pmol oocyte-1 h-1 and 4.68 pmol oocyte-1 h-1 and 2.46 pmol oocyte-1 h-1 and 3.03 pmol oocyte-1 h-1. Besides, the “E207F R-value” in assay [2] (ratio of activity pH 4.5 / pH 6.0) is 1.15 and 0.65 and 0.82 and 0.75. In addition, the “F287A transport activity pH 4.5” value in assay [3] (pH 4.5, single replicates, Fig 1d left) was 1.56 pmol oocyte-1 h-1 and 1.62 pmol oocyte-1 h-1 and 1.49 pmol oocyte-1 h-1 and 1.34 pmol oocyte-1 h-1. In assay [3] (pH 4.5 vs pH 6.0, Fig 1d left), the “F287 R-value” was 0.32 and 0.33 and 0.38 and 0.26. In assay [3] (pH 6.0, single replicates, Fig 1d left), the “F287A transport activity pH 6.0” value was 4.84 pmol oocyte-1 h-1 and 4.98 pmol oocyte-1 h-1 and 3.89 pmol oocyte-1 h-1 and 5.12 pmol oocyte-1 h-1.
